According to ChEMBL document CHEMBL1687706, “Inhibition of human immunodeficiency virus type 1 replication in human cells by Debio-025, a novel cyclophilin binding agent” (Antimicrob Agents Chemother, 2008):

Key:
[1] = tested on: Human immunodeficiency virus 1; test: Antiviral activity against APV, ATV, LPV, IDV, NFV, RTV, SQV-resistant HIV-1 1064-52 infected in human PBMC assessed as inhibition of viral replication by ELISA; type: functional, organism-based; details: Human immunodeficiency virus 1, 1064-52
[2] = tested on: Human immunodeficiency virus 2; test: Antiviral activity against HIV-2 isolate CDC310319 infected in human PBMC assessed as inhibition of viral replication; type: functional, organism-based; details: Human immunodeficiency virus 2, isolate CDC310319
Rattus norvegicus [3] = test: Immunosuppressive activity in Sprague-Dawley rat […] model assessed as percent T-helper cells at 10 mg/kg, po administered once daily for 28 days by flow cytometry; type: functional
Human alphaherpesvirus 1 = test: Antiviral activity against Herpes simplex virus 1 F infected in human embryonic lung cells assessed as inhibition of viral replication; type: functional, organism-based; details: Human alphaherpesvirus 1, strain F
Rattus norvegicus [4] = test: Immunosuppressive activity in Sprague-Dawley rat KHL model assessed as percent cytotoxic T cells at 50 mg/kg, po administered once daily for 28 days by flow cytometry; type: functional, T-cell
[5] = tested on: Human immunodeficiency virus 1; test: Antiviral activity against APV, ATV, IDV, LPV, NFV, RTV, SQV, AZT, ddI, 3TC, d4T-resistant HIV-1 MDR1385 infected in human PBMC assessed as inhibition of viral replication by ELISA; type: functional, organism-based; details: Human immunodeficiency virus 1, MDR1385
Rattus norvegicus [6] = test: Immunosuppressive activity in Sprague-Dawley rat […] model assessed as percent T-helper cells at 25 mg/kg, po administered once daily for 28 days by flow cytometry; type: functional

`C/C=C/C[C@@H](C)[C@@H](O)[C@H]1C(=O)N[C@@H](CC)C(=O)N(C)[C@H](C)C(=O)N(CC)[C@@H](C(C)C)C(=O)N[C@@H](C(C)C)C(=O)N(C)[C@@H](CC(C)C)C(=O)N[C@@H](C)C(=O)N[C@H](C)C(=O)N(C)[C@@H](CC(C)C)C(=O)N(C)[C@@H](CC(C)C)C(=O)N(C)[C@@H](C(C)C)C(=O)N1C` [ALISPORIVIR] showed an IC50 [1] of 7 nM, an IC50 [2] of 10500 nM and an Activity (Rattus norvegicus [3]) of 29.8%. It also gave an IC50 (Human alphaherpesvirus 1) of over 25000 nM, an Activity (Rattus norvegicus [4]) of 16.1% and an IC50 [5] of 58 nM. The Activity (Rattus norvegicus [6]) was 34.5%.
